Experimental data published in ChEMBL document CHEMBL2095176, “GSK Tuberculosis Screening Data”.
In brackets after ≈: the same amount, converted by molar mass.

Legend:
[1] = test system: Mycobacterium tuberculosis H37Rv; experiment: microbe, parasite or virus in culture
Description: GSK_TB: Intracellular minimum inhibitory concentration (MIC) H37Rv assay

physchem [2] = conditions: buffer, pH 7.4
Description: GSK_TB: GSK in-house hydrophobicity assay at pH7.4 (logD)

physchem [3] = conditions: octanol/water
Description: GSK_TB: GSK in-house hydrophobicity assay (logP)

physchem [4] = conditions: phosphate buffered saline, pH 7.4

## Cc1cccc(-c2nc(Nc3ccncn3)c3sccc3n2)n1
[1]
  MIC90: 0.5 µM (≈ 0.16 µg/mL)

## CCc1ccc(CN2CCC3(CC2)OCCc2sccc23)s1
[1]
  MIC90: 1 µM (≈ 0.334 µg/mL)

## c1cc2c(s1)CCOC21CCN(Cc2ccc3c(c2)OCCO3)CC1
[1]
  MIC90: 1 µM (≈ 0.357 µg/mL)

## O=C(NC12CC3CC(CC(C3)C1)C2)c1cc2cc(Cl)ccc2[nH]1
[1]
  MIC90: 1 µM (≈ 0.329 µg/mL)

## COc1ccc(Nc2ccccc2NC(=O)c2ccc(O)nc2)cc1
[1]
  MIC90: 7.08 µM (≈ 2.37 µg/mL)
Physchem [2]
  logD: 2.92
Physchem [3]
  logP: 2.97
Physchem [4]
  solubility kinetic: 362 µM (≈ 121 µg/mL)

## Cc1ccc(CNC(=O)c2cnn3c2NC(c2ccc(C)cc2)CC3C(F)F)cc1 (stereo not drawn)
[1]
  MIC90: 1.23 µM (≈ 0.505 µg/mL)
Physchem [2]
  logD: 6.84
Physchem [3]
  logP: 7.09
Physchem [4]
  solubility kinetic: 1 µM (≈ 0.41 µg/mL)

## CCCCS(=O)(=O)Nc1ccc2cnn(C)c2c1
[1]
  MIC90: 1.3 µM (≈ 0.348 µg/mL)
Physchem [2]
  logD: 3.48
Physchem [3]
  logP: 3.58
Physchem [4]
  solubility kinetic: 552 µM (≈ 148 µg/mL)

## O=C(NC(Cc1ccccc1)C(=O)Nc1ccccc1N1CCOCC1)c1cccs1 (stereo not drawn)
[1]
  MIC90: 7.6 µM (≈ 3.31 µg/mL)
Physchem [2]
  logD: 5.53
Physchem [3]
  logP: 5.78
Physchem [4]
  solubility kinetic: 64 µM (≈ 27.9 µg/mL)

## O=C(Nc1nnc(-c2ccc(Cl)s2)o1)c1ccc(Cl)s1
[1]
  MIC90: 7.76 µM (≈ 2.69 µg/mL)

## CCCOC(=O)COc1ccc2c(=O)c(-c3ccccc3OC)coc2c1
[1]
  MIC90: 7.94 µM (≈ 2.93 µg/mL)
Physchem [2]
  logD: 6
Physchem [3]
  logP: 6.24

## CCc1ccc(C2CC(C(F)(F)F)n3ncc(C(=O)NCc4cccs4)c3N2)cc1 (stereo not drawn)
[1]
  MIC90: 4.37 µM (≈ 1.9 µg/mL)
Physchem [2]
  logD: 6.99
Physchem [3]
  logP: 7.27
Physchem [4]
  solubility kinetic: 1 µM (≈ 0.434 µg/mL)

## O=C(c1[nH]nc2c1CCCC2)N1CCN(Cc2ccc3c(c2)OCO3)CC1
[1]
  MIC90: 4.5 µM (≈ 1.66 µg/mL)

## c1ncn(-c2ccc(COc3ccc(-n4cncn4)cc3)cc2)n1
[1]
  MIC90: 4.73 µM (≈ 1.51 µg/mL)

## NC(=O)c1cc(-c2ccsc2)ccc1OCCOc1ccccc1
[1]
  MIC90: 3.5 µM (≈ 1.19 µg/mL)
Physchem [2]
  logD: 5.44
Physchem [3]
  logP: 5.78
Physchem [4]
  solubility kinetic: 1 µM (≈ 0.339 µg/mL)

## Br.CC1(C)NC(N)=NC(=N)N1OCCCOc1ccc(Cl)cc1Cl
[1]
  MIC90: 3.55 µM
Physchem [2]
  logD: 3.39
Physchem [3]
  logP: 4.83
Physchem [4]
  solubility kinetic: 337 µM

## O=C(OCc1c(F)cccc1Cl)c1ccc(-n2ncc(Cl)c(Cl)c2=O)cc1
[1]
  MIC90: 4.9 µM (≈ 2.09 µg/mL)
Physchem [4]
  solubility kinetic: 22 µM (≈ 9.41 µg/mL)

## CCc1ccc([C@@H]2C[C@H](C(F)(F)F)n3ncc(C(=O)NCc4ccc(OC)cc4)c3N2)cc1
[1]
  MIC90: 4.9 µM (≈ 2.25 µg/mL)

## Fc1ccccc1-c1noc(N2CCN(Cc3ccc4c(c3)OCO4)CC2)n1
[1]
  MIC90: 5.2 µM (≈ 1.99 µg/mL)
Physchem [2]
  logD: 6.56
Physchem [3]
  logP: 6.94
Physchem [4]
  solubility kinetic: 10 µM (≈ 3.82 µg/mL)

## CCn1c(=O)c(=O)[nH]c2cc(C(=O)Nc3ccccc3Nc3ccc(OC)cc3)ccc21
[1]
  MIC90: 8.4 µM (≈ 3.62 µg/mL)
Physchem [2]
  logD: 3.67
Physchem [3]
  logP: 3.87
Physchem [4]
  solubility kinetic: 47 µM (≈ 20.2 µg/mL)

## O=C(CCSc1ccc(Cl)cc1)Nc1nc(-c2ccccn2)cs1
[1]
  MIC90: 8.41 µM (≈ 3.16 µg/mL)

## O=C(C=Cc1ccccc1)N1CCN(Cc2ccc3c(c2)OCO3)CC1
[1]
  MIC90: 3.7 µM (≈ 1.3 µg/mL)
Physchem [2]
  logD: 5.16
Physchem [3]
  logP: 5.44

## Cc1cc(CN2CCC3(CC2)OCCc2sccc23)oc1C
[1]
  MIC90: 3.7 µM (≈ 1.17 µg/mL)
Physchem [4]
  solubility kinetic: 289 µM (≈ 91.7 µg/mL)

## CSc1cccc(C(=O)Nc2nc(-c3ccccn3)cs2)c1
[1]
  MIC90: 3.72 µM (≈ 1.22 µg/mL)
Physchem [2]
  logD: 5.25
Physchem [3]
  logP: 5.26
Physchem [4]
  solubility kinetic: 12 µM (≈ 3.93 µg/mL)

## CSc1ccc(C(=O)Nc2nc(-c3ccccn3)cs2)cc1
[1]
  MIC90: 8.71 µM (≈ 2.85 µg/mL)
Physchem [2]
  logD: 5.07
Physchem [3]
  logP: 5.06

## COc1ccc(CCNc2cc(-c3ccccc3)nc3ncnn23)cc1
[1]
  MIC90: 0.6 µM (≈ 0.207 µg/mL)

## Br.CCc1ccccc1OCCCON1C(=N)N=C(N)NC1(C)C
[1]
  MIC90: 3.2 µM
Physchem [2]
  logD: 3.3
Physchem [3]
  logP: 4.83
Physchem [4]
  solubility kinetic: 225 µM

## Br.CC1(C)N=C(N)N=C(N)N1OCCc1ccc2ccccc2c1
[1]
  MIC90: 2.32 µM
Physchem [2]
  logD: 2.92
Physchem [3]
  logP: 4.23
Physchem [4]
  solubility kinetic: 201 µM

## Br.CCCc1cc(C(C)=O)ccc1OCCCON1C(=N)N=C(N)NC1(C)C
[1]
  MIC90: 2.34 µM
Physchem [2]
  logD: 2.92
Physchem [3]
  logP: 4.02
Physchem [4]
  solubility kinetic: 201 µM

## Cc1cc(NCCc2ccccc2)nc(NC(=N)Nc2ccc(Cl)cc2)n1
[1]
  MIC90: 2.37 µM (≈ 0.903 µg/mL)
Physchem [2]
  logD: 4
Physchem [3]
  logP: 6.74
Physchem [4]
  solubility kinetic: 73 µM (≈ 27.8 µg/mL)

## Br.Cc1ccccc1OCCCON1C(=N)N=C(N)NC1(C)C
[1]
  MIC90: 3.76 µM
Physchem [2]
  logD: 2.83
Physchem [3]
  logP: 3.92
Physchem [4]
  solubility kinetic: 436 µM

## c1cncc(NCc2ccc(-c3cc4ccncc4cc3OC3CCNCC3)s2)c1
[1]
  MIC90: 8.61 µM (≈ 3.59 µg/mL)
Physchem [2]
  logD: 1.9
Physchem [3]
  logP: 4.23
Physchem [4]
  solubility kinetic: 167 µM (≈ 69.6 µg/mL)

## Clc1ccc(Nc2nc(-c3ccccn3)cs2)nc1
[1]
  MIC90: 5.9 µM (≈ 1.7 µg/mL)
Physchem [2]
  logD: 5.35
Physchem [3]
  logP: 6.53

## Cc1csc2nc(-c3ccccn3)nc(Nc3ccncn3)c12.O=C(O)C(F)(F)F
[1]
  MIC90: 1.7 µM
Physchem [4]
  solubility kinetic: 231 µM

## Br.CC(C)(C)c1ccccc1OCCCON1C(=N)N=C(N)NC1(C)C
[1]
  MIC90: 2.3 µM
Physchem [2]
  logD: 4.04
Physchem [3]
  logP: 6.14
Physchem [4]
  solubility kinetic: 363 µM

## CSc1ccccc1C(=O)Nc1nc(-c2ccccn2)cs1
[1]
  MIC90: 1.74 µM (≈ 0.569 µg/mL)

## Cn1cc(NC(=O)c2cc(NC(=O)CNC(=N)N)cn2C)cc1C(=O)NCCC(=N)N [NETROPSIN CHLORIDE]
[1]
  MIC90: 6.46 µM
